In patent publication US10632106B2, “Methods of cancer treatment with 2-(1′H-Indole-3′-carbonyl)-thiazole-4-carboxylic acid methyl ester” (Ariagen, Inc., priority 2009, dated 2020):

System: human breast cancer cell line MCF-7 xenografts
Test: MCF-7 xenograft growth inhibition in nude mice
Assay type: in vivo
Conditions: 20 mg/kg i.p. once daily
Procedure: All the procedures related to animal handling, care, and the treatment in the study were performed following guidelines approved by an Institutional Animal Care and Use Committee (IACUC) of Crown Bioscience, Inc. (Santa Clara, Calif., USA, a contract research organization we hired) based on the guidance of the Association for Assessment and Accreditation of Laboratory Animal Care (AAALAC). Animals were checked for any effects of tumor growth and drug treatment on normal behavior such as mobility, food and water consumption, body weight gain/loss (gross body weights were measured twice weekly), eye/hair matting, and any other abnormal effect. Death and observed clinical signs were recorded on the basis of the number of animals within each group. Individual animals with a tumor volume exceeding 3,000 mm^3 or animals of a group with a mean tumor volume exceeding 2,000 mm^3 were euthanized. […]
Tumor volume was measured twice weekly in two dimensions using a caliper and the volume was calculated with a formula of: V=0.5 a×b^2, where a and b are the long and short diameter (in mm) of a tumor, respectively. […] The TGD was calculated as: TGD=T−C, where T was the time (in days) required for tumors in a drug treated group to reach a predetermined mean tumor volume and C the time (in days) in the control group to reach the same volume. […]

COC(=O)c1csc(C(=O)c2c[nH]c3ccccc23)n1 [ITE, 2-(1′H-indole-3′-carbonyl)-thiazole-4-carboxylic acid methyl ester]
TGD (Tumor Growth Delay) (at a tumor volume of 500 mm^3): 3 days | TGI (Tumor Growth Inhibition) (day 19, TGI=ΔT/ΔC×100%): 71%
